Measured values reported in the supplement of paper PMC10307832.

How the values were obtained:
Test in all cases: relative viability (nuclei count vs DMSO), 5 days (fraction); higher = more cells survive
LOU-NH91 = tested on: LOU-NH91
Procedure, shortened: (§1)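 Dosing by pin tool came one day after lung cancer cell lines were seeded in 1536-well plates, using either one drug or a fixed anchor-drug dose plus five library-drug doses (not always all listed) in √10 steps. After 5 days, nuclei were counted on 4× images. Relative viability is treated-well nuclei count divided by vehicle-well nuclei count, and values are medians of duplicate plates.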

NCI-H2087 = tested on: NCI-H2087
Procedure, shortened: as §1

HCC-366 = tested on: HCC-366
Procedure, shortened: as §1

SK-LU-1 = tested on: SK-LU-1
Procedure, shortened: as §1

HCC-827 = tested on: HCC-827
Procedure, shortened: as §1

NCI-H1993 = tested on: NCI-H1993
Procedure, shortened: as §1

NCI-H1437 = tested on: NCI-H1437
Procedure, shortened: as §1

HARA = tested on: HARA
Procedure, shortened: as §1

NCI-H1734 = tested on: NCI-H1734
Procedure, shortened: as §1

EKVX = tested on: EKVX
Procedure, shortened: as §1

BEN = tested on: BEN
Procedure, shortened: as §1

## COc1cc2nccc(Oc3ccc(NC(=O)Nc4cc(C)on4)c(Cl)c3)c2cc1OC [Tivozanib] + N=C(N)NC(=N)NCCc1ccccc1 [Phenformin] (partner 250 µM)
LOU-NH91; first compound 0.005 µM
  relative viability: 0.65
LOU-NH91; first compound 0.01581 µM
  relative viability: 0.667
LOU-NH91; first compound 0.05 µM
  relative viability: 0.748
LOU-NH91; first compound 0.1581 µM
  relative viability: 0.654
LOU-NH91; first compound 0.5 µM
  relative viability: 0.676
NCI-H2087; first compound 0.005 µM
  relative viability: 0.416
NCI-H2087; first compound 0.01581 µM
  relative viability: 0.444
NCI-H2087; first compound 0.05 µM
  relative viability: 0.496
NCI-H2087; first compound 0.1581 µM
  relative viability: 0.407
NCI-H2087; first compound 0.5 µM
  relative viability: 0.415
HCC-366; first compound 0.005 µM
  relative viability: 0.615
HCC-366; first compound 0.01581 µM
  relative viability: 0.588
HCC-366; first compound 0.05 µM
  relative viability: 0.632
HCC-366; first compound 0.1581 µM
  relative viability: 0.643
HCC-366; first compound 0.5 µM
  relative viability: 0.611
SK-LU-1; first compound 0.005 µM
  relative viability: 0.58
SK-LU-1; first compound 0.01581 µM
  relative viability: 0.549
SK-LU-1; first compound 0.05 µM
  relative viability: 0.629
SK-LU-1; first compound 0.1581 µM
  relative viability: 0.376
SK-LU-1; first compound 0.5 µM
  relative viability: 0.532
HCC-827; first compound 0.005 µM
  relative viability: 0.402
HCC-827; first compound 0.01581 µM
  relative viability: 0.434
HCC-827; first compound 0.05 µM
  relative viability: 0.391
HCC-827; first compound 0.1581 µM
  relative viability: 0.43
HCC-827; first compound 0.5 µM
  relative viability: 0.452
NCI-H1993; first compound 0.005 µM
  relative viability: 0.503
NCI-H1993; first compound 0.01581 µM
  relative viability: 0.507
NCI-H1993; first compound 0.05 µM
  relative viability: 0.51
NCI-H1993; first compound 0.1581 µM
  relative viability: 0.558
NCI-H1993; first compound 0.5 µM
  relative viability: 0.52
NCI-H1437; first compound 0.005 µM
  relative viability: 0.296
NCI-H1437; first compound 0.01581 µM
  relative viability: 0.289
NCI-H1437; first compound 0.05 µM
  relative viability: 0.316
NCI-H1437; first compound 0.1581 µM
  relative viability: 0.339
NCI-H1437; first compound 0.5 µM
  relative viability: 0.317
HARA; first compound 0.005 µM
  relative viability: 0.452
HARA; first compound 0.01581 µM
  relative viability: 0.41
HARA; first compound 0.05 µM
  relative viability: 0.424
HARA; first compound 0.1581 µM
  relative viability: 0.364
HARA; first compound 0.5 µM
  relative viability: 0.489
NCI-H1734; first compound 0.005 µM
  relative viability: 0.343
NCI-H1734; first compound 0.01581 µM
  relative viability: 0.365
NCI-H1734; first compound 0.05 µM
  relative viability: 0.371
NCI-H1734; first compound 0.1581 µM
  relative viability: 0.362
NCI-H1734; first compound 0.5 µM
  relative viability: 0.383
EKVX; first compound 0.005 µM
  relative viability: 0.214
EKVX; first compound 0.01581 µM
  relative viability: 0.228
EKVX; first compound 0.05 µM
  relative viability: 0.232
EKVX; first compound 0.1581 µM
  relative viability: 0.243
EKVX; first compound 0.5 µM
  relative viability: 0.236
BEN; first compound 0.005 µM
  relative viability: 0.25
BEN; first compound 0.01581 µM
  relative viability: 0.279
BEN; first compound 0.05 µM
  relative viability: 0.224
BEN; first compound 0.1581 µM
  relative viability: 0.314
